Results from paper PMC3758386 (Psychopharmacology, 2013).
Several values for one entry are separate records, joined by “and”; a condition that tells them apart may be missing. Identical values can stand only once.

Columns and labels:
Y335A mutant DAT = conditions: transfected cells, cited from earlier work
[1] = system: extracellular DA levels in the NAC shell; test: In vivo microdialysis, extracellular DA in NAC shell; conditions: rat; for rate of increase in DA concentrations: ±SEM; for DA concentrations in NAC shell at times of conditioning sessions compared with 3.0 mg/kg cocaine (165% of basal): pretreatment 0, 45, 90 min
rats = test: Place conditioning; format: in vivo; conditions: rat
K+ Channel hERG = K+ Channel hERG (Homo sapiens, UniProt Q12809); test: receptor screen, K+ Channel hERG; format: binding; conditions: from Ki values of Table 2
Sequence of K+ Channel hERG (Q12809 whole entry): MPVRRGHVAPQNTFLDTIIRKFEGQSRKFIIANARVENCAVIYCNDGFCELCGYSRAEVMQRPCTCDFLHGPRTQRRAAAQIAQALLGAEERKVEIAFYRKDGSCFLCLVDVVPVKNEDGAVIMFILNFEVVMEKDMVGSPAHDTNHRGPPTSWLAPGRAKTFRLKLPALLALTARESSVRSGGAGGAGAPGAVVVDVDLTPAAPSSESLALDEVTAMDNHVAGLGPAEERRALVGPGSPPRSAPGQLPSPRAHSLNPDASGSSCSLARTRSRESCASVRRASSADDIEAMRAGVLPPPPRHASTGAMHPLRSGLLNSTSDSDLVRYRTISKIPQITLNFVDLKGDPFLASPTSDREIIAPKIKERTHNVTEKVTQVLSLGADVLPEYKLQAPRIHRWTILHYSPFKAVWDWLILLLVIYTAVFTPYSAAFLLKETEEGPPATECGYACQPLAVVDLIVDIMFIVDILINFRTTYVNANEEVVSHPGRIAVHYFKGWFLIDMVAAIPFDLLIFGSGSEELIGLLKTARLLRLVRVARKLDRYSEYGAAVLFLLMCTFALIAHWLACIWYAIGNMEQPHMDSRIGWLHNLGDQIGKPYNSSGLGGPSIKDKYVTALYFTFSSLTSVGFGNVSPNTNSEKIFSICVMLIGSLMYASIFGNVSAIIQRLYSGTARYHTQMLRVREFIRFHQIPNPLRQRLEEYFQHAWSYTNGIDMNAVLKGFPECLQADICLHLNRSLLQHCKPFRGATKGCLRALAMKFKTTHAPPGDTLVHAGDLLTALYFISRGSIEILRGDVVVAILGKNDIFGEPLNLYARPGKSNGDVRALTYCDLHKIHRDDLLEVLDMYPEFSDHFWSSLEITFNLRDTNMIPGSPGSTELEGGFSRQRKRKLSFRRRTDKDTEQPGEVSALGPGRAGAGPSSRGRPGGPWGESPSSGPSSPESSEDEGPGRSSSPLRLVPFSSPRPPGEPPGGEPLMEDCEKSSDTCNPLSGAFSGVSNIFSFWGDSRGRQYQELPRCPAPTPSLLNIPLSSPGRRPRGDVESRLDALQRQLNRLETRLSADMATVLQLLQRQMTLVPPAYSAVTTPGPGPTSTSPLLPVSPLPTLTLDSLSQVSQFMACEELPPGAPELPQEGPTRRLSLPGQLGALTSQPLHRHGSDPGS

DAT = test: radioligand binding, DAT; conditions: from Ki values of Table 2
Estrogen ERα = Estrogen ERα (Homo sapiens, UniProt P03372); test: receptor screen, Estrogen ERα; format: binding; conditions: inactive = displacement at 10,000 nM less than 75%
Sequence of Estrogen ERα (P03372 whole entry): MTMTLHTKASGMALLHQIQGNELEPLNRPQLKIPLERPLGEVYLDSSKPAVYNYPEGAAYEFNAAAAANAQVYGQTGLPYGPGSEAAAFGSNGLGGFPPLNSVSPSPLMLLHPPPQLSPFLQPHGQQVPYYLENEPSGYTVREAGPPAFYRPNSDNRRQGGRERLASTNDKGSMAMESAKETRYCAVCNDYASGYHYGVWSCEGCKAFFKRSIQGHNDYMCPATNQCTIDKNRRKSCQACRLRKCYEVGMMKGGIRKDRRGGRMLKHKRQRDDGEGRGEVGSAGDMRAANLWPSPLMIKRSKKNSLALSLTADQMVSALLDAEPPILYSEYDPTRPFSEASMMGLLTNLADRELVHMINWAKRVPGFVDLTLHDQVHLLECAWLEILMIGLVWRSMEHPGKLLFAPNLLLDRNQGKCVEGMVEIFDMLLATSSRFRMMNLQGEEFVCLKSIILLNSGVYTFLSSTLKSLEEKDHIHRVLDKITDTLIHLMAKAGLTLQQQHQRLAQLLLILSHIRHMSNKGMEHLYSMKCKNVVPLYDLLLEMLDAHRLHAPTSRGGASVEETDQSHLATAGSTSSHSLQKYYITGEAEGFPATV

Glucocorticoid = target: T1, Glucocorticoid (Homo sapiens, UniProt P04150); test: receptor screen, Glucocorticoid; format: binding; conditions: inactive = displacement at 10,000 nM less than 75%
T1 sequence (P04150 1-777): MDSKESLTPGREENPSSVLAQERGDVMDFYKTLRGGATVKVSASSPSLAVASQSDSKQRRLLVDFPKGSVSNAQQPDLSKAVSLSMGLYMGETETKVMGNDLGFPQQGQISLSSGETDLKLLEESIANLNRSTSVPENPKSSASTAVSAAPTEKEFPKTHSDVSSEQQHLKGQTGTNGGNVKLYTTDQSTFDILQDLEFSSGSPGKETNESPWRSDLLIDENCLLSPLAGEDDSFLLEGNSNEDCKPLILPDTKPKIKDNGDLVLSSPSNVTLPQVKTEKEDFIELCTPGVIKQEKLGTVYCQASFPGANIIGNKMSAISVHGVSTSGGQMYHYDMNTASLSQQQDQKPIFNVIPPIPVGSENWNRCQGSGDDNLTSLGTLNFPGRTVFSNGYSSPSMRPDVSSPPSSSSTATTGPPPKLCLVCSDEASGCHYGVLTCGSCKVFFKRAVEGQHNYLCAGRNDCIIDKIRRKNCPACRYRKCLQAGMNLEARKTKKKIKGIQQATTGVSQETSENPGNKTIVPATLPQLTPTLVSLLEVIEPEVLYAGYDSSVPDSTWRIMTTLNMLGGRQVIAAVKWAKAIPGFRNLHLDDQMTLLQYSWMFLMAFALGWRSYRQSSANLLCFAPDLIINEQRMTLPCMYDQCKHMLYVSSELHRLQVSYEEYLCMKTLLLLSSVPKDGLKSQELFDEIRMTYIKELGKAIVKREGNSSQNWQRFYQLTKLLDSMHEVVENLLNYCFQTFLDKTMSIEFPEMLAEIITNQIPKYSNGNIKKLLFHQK

Muscarinic M2 = target: T2, Muscarinic M2 (Homo sapiens, UniProt P08172); test: receptor screen, Muscarinic M2; format: binding; conditions: read-out: Ki Muscarinic M2, [3H]N-methylscopolamine
T2 sequence (P08172 1-466): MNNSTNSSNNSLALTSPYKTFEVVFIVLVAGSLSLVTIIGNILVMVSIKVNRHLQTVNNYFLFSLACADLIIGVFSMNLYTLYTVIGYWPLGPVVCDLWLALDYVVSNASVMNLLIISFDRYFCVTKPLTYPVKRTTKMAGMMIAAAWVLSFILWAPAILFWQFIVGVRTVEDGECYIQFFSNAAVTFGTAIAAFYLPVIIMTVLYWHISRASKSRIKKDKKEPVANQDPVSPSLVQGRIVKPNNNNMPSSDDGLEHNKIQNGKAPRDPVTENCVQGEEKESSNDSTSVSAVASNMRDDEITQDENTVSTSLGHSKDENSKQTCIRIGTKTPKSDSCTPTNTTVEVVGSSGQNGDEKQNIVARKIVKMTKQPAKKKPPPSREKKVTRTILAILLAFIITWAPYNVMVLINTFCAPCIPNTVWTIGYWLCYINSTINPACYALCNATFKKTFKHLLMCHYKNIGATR

Muscarinic M3 = Muscarinic M3 (Homo sapiens, UniProt P20309); test: receptor screen, Muscarinic M3; format: binding; conditions: read-out: Ki Muscarinic M3, [3H]N-methylscopolamine
Sequence of Muscarinic M3 (P20309 whole entry): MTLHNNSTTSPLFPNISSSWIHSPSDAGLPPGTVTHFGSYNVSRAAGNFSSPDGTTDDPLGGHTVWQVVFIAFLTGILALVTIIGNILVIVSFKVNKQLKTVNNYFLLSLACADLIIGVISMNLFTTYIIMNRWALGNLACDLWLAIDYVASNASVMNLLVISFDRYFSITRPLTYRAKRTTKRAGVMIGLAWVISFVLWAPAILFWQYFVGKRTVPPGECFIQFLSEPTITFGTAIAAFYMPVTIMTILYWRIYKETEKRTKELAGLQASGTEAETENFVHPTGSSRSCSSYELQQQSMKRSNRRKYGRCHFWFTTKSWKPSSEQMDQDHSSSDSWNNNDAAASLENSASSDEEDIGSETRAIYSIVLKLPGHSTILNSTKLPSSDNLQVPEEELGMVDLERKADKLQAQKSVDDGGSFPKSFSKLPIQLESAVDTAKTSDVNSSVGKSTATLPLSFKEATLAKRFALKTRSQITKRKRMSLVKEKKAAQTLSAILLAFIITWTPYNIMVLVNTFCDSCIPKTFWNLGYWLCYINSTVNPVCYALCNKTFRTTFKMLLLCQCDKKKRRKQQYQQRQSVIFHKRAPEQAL

Testosterone = target: T3, Testosterone (Rattus norvegicus, UniProt P15207); test: receptor screen, Testosterone; format: binding; conditions: inactive = displacement at 10,000 nM less than 75%
T3 sequence (P15207 651-882 limits assumed): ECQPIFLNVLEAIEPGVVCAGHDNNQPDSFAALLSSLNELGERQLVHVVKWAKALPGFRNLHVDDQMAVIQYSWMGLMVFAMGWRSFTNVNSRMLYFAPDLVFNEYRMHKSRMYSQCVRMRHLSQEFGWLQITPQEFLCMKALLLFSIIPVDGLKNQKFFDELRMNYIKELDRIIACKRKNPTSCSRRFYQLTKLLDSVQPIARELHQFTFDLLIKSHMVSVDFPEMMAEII

Progesterone = target: T4, Progesterone (Bos taurus, UniProt F1N712); test: receptor screen, Progesterone; format: binding, Bovine; conditions: [3H]R-5020, inactive = displacement at 10,000 nM less than 75%
T4 sequence (F1N712 1-914): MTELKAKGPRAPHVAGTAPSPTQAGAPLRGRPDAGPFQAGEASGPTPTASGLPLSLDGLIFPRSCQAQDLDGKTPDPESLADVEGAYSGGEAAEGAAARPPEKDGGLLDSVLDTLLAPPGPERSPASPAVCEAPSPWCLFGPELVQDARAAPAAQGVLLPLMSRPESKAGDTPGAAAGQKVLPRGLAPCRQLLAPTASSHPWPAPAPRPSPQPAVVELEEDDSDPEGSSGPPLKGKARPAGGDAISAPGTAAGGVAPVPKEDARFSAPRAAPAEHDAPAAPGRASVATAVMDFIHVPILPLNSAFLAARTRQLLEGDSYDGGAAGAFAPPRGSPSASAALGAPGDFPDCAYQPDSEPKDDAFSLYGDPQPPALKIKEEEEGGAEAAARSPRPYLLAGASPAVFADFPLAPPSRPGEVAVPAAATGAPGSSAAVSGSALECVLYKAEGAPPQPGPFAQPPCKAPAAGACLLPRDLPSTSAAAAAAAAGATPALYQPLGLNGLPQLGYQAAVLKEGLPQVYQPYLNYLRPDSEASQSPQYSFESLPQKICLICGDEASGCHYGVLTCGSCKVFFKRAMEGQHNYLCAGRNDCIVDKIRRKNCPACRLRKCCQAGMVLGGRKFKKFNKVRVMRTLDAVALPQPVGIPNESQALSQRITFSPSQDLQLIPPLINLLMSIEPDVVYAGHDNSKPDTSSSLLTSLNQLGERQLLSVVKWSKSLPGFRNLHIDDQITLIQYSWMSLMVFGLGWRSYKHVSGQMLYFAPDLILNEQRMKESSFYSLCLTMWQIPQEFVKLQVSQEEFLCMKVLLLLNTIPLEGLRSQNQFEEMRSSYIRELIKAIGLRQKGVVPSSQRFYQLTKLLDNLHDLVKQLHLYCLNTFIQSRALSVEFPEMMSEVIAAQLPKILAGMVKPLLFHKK

Dopamine D2L = Dopamine D2L (Homo sapiens, UniProt P14416); test: receptor screen, Dopamine D2L; format: binding; conditions: inactive = displacement at 10,000 nM less than 75%
Sequence of Dopamine D2L (P14416 whole entry): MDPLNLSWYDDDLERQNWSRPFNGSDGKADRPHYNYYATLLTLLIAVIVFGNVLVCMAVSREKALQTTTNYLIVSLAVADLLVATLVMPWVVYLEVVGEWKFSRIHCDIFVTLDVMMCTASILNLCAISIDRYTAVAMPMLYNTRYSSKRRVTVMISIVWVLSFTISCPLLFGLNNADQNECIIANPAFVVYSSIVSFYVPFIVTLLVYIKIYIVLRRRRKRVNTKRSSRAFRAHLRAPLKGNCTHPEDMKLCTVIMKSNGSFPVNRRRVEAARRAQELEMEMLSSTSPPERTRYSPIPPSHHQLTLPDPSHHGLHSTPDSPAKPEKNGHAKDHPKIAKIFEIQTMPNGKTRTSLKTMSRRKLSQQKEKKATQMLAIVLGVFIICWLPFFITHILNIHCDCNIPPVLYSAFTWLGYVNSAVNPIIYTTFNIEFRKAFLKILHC

Adenosine A1 = target: T5, Adenosine A1 (Homo sapiens, UniProt P30542); test: receptor screen, Adenosine A1; format: binding; conditions: [3H]DPCPX, inactive = displacement at 10,000 nM less than 75%
T5 sequence (P30542 1-326): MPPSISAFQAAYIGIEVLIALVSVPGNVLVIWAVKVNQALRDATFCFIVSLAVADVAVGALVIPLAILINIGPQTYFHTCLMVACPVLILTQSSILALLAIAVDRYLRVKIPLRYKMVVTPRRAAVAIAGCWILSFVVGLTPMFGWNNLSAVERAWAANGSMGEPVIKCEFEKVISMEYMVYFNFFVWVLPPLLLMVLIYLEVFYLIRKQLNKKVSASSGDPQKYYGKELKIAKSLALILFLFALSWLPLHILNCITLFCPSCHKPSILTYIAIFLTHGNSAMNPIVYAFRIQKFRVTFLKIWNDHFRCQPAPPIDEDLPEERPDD

[2] = 10 mg/kg i.p., initial phase, first 30 min (cocaine: up to the maximum)
[3] = i.p. (1 to 10 mg/kg), injected immediately before conditioning sessions

| SMILES | effect on dialysate DA levels from the NAC shell ([1]; 1.0 mg/kg i.p.) | effect on dialysate DA levels from the NAC shell ([1]; 3.0 mg/kg i.p.) | DA concentrations in NAC shell at times of conditioning sessions compared with 3.0 mg/kg cocaine (165% of basal) ([1]; 3.0 mg/kg i.p.) | duration of increase in DA levels ([1]; 10 mg/kg i.p.) | time after injection at which DA exceeded 165% of basal values ([1]; 10 mg/kg i.p.) | time after injection until which DA increase continued (peak) ([1]; 10 mg/kg i.p.) | rate of increase in DA concentrations [1, 2] | DA concentrations in NAC shell at times of conditioning sessions compared with 3.0 mg/kg cocaine (165% of basal) ([1]; 10.0 mg/kg i.p.) | place conditioning (time allocated to compound-paired compartment) (rats; [3]) | selectivity K+ hERG channel over the DAT (K+ Channel hERG) | effect on dialysate DA levels from the NAC shell ([1]; 10 mg/kg i.p.) | also measured |
| --- | --- | --- | --- | --- | --- | --- | --- | --- | --- | --- | --- | --- |
| CCOC(=O)[C@@H]1C(OC(c2ccc(Cl)cc2)c2ccc(Cl)cc2)C[C@@H]2CC[C@H]1N2C (mixture of isomers) [MFZ 4-86, (±)-2α-carboethoxy-3R-[bis(4-chlorophenyl)methoxy]tropane] | increases in DA that did not achieve statistical significance | also increased DA concentrations, though less than at the higher dose | levels that approximated those of cocaine in all but the first 30 min | remained elevated for the entire five-hr session | 20 min | about 120 min | 6.74 (±0.371) %/min | levels that exceeded those of the 3.0 mg/kg dose of cocaine at all pretreatment times | without significant place-conditioning effects | ~ 20 fold |  | potency in Y335A mutant DAT relative to wild-type DAT (fold lower) (Y335A mutant DAT; ref Loland et al. 2008): ~13 fold; time after injection at which DA exceeded 165% of basal values ([1]; 3.0 mg/kg i.p.): 50 min; rate of increase in DA concentrations ([1]; 3.0 mg/kg i.p., initial phase (cocaine: up to the maximum)): 3.05 (±0.270) %/min |
| COC(=O)[C@@H]1C(OC(c2ccc(Cl)cc2)c2ccc(Cl)cc2)C[C@@H]2CC[C@H]1N2C (mixture of isomers) [MFZ 4-87, (±)-2α-carbomethoxy-3R-[bis(4-chlorophenyl)methoxy]tropane] |  |  | levels that approximated those of cocaine in all but the first 30 min | ≥ 4 h |  | about 160 min | 5.59 (±0.712) %/min | levels that exceeded those of the 3.0 mg/kg dose of cocaine at all pretreatment times | did not produce a change in allocation of time to the compound-paired compartment | ~ 20 fold |  | increase in dialysate DA concentrations ([1]; 1.0 mg/kg i.p.): ≤ 165 % of basal levels; increase in dialysate DA concentrations ([1]; 3.0 mg/kg i.p., slightly exceeded): exceeded 165 % of basal levels; maximum / maintained DA concentration ([1]; 10 mg/kg i.p.): about 350 % of basal levels; selectivity for the DAT compared to any other site assayed (DAT): ~ 30 fold |
| CN1C2CCC1CC(OC(c1ccc(Cl)cc1)c1ccc(Cl)cc1)C2 (stereo not drawn) [4,4-diCl-BZT, 4′-chloro-4″-chloro-3α-(diphenylmethoxy)tropane] | did not significantly affect DA levels | did not significantly affect DA levels |  |  | ≤ 20 min | about 140 min |  |  | without significant place-conditioning effects |  | significant increase in DA levels | Ki Estrogen ERα (Estrogen ERα): inactive; Ki Glucocorticoid (Glucocorticoid): inactive; Ki (Muscarinic M2): 0.64 µM; Ki (Muscarinic M3): 0.01 µM; Ki Testosterone (Testosterone): inactive; Ki Progesterone (Progesterone): inactive; Ki Dopamine D2L (Dopamine D2L): inactive; Ki Adenosine A1 (Adenosine A1): inactive |
| COC(=O)[C@H]1[C@@H](OC(=O)c2ccccc2)C[C@@H]2CC[C@H]1N2C [cocaine, (−)-cocaine, reference compound] |  | significantly increased extracellular DA concentrations |  |  |  |  | 11.4 (±0.860) %/min |  |  |  | significantly increased extracellular DA concentrations | potency in Y335A mutant DAT relative to wild-type DAT (Y335A mutant DAT; ref Loland et al. 2002): reduced by about two orders of magnitude; rate of increase in DA concentrations ([1]; 3.0 mg/kg i.p., initial phase (cocaine: up to the maximum), 3 mg/kg): 4.84 (±0.359) %/min and 4.84 %/min; place conditioning (time allocated to compound-paired compartment) (rats; i.p., each dose tested, injected immediately before sessions): significant place conditioning |
